Data reported in the supplement of paper PMC7840683.
Where a name gives a salt, the structure may show the parent alone.

System: HepaRG
Assay: LDH release cytotoxicity, % of total lysis control; higher = more cytotoxic
Settings: 48 h
Method in brief: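 Percent cytotoxicity was scaled between on-plate vehicle and total lysis controls, then averaged over duplicate wells. The cells were single-lot HepaRG on collagen I-coated 96-well plates, exposed for 48 h to eight-point half-log test chemical series topping at 100 µM in serum-free induction medium with 0.5% DMSO. Total lysis wells got 0.1% Triton X, and LDH in 50 µL spent medium was read as resorufin fluorescence (CytoTox-ONE, Tecan Safire).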

CCNC(=O)NC(=O)C(C#N)=NOC [Cymoxanil]
Settings	LDH release cytotoxicity [%]
0.03162 µM	-0.835
0.1 µM	-1.41
0.3162278 µM	-2
1 µM	-1.41
3.16228 µM	-2.17
10 µM	-0.806
31.6228 µM	-0.354
100 µM	1.89

Nc1ccccc1N [1,2-Phenylenediamine]
Settings	LDH release cytotoxicity [%]
0.03162 µM	-3.74
0.1 µM	-3.27
0.3162278 µM	-2.8
1 µM	-1.88
3.16228 µM	-3.1
10 µM	-2.74
31.6228 µM	-2.23
100 µM	-1.05

CCOc1ccc(C(C)(C)COCc2cccc(Oc3ccccc3)c2)cc1 [Etofenprox]
Settings	LDH release cytotoxicity [%]
0.03162 µM	-2.22
0.1 µM	-3.48
0.3162278 µM	-2.37
1 µM	-2.59
3.16228 µM	-2.77
10 µM	-2.63
31.6228 µM	-2.47
100 µM	-1.82

OCCN(CCO)CCO [Triethanolamine]
Settings	LDH release cytotoxicity [%]
0.03162 µM	-0.32
0.1 µM	-0.911
0.3162278 µM	-1.61
1 µM	-1.26
3.16228 µM	-1.19
10 µM	-0.416
31.6228 µM	-0.346
100 µM	1.04

N#CN=C1SCCN1Cc1ccc(Cl)nc1 [Thiacloprid]
Settings	LDH release cytotoxicity [%]
0.03162 µM	-2.96
0.1 µM	-3.73
0.3162278 µM	-3.467
1 µM	-3.3
3.16228 µM	-3.46
10 µM	-2.54
31.6228 µM	-2.87
100 µM	-1.64

C[N+](C)(C)CC1CO1 (configuration not stated) [Glycidyl trimethylammonium chloride]
Settings	LDH release cytotoxicity [%]
0.03162 µM	-0.794
0.1 µM	-0.64
0.3162278 µM	-0.926
1 µM	-1.32
3.16228 µM	-1.48
10 µM	-0.844
31.6228 µM	-0.342
100 µM	0.366

CCN(CC)C(=O)c1cc(S(=O)(=O)Cc2ccccc2)c(N2CCC(c3ccccc3)CC2)cc1N(CC)CCN(C)C [HMR1171 trifluoroacetate (1:1)]
Settings	LDH release cytotoxicity [%]
0.01202 µM	1.63
0.038 µM	0.671
0.120167 µM	0.671
0.38 µM	-0.413
1.20167 µM	-7.42
3.8 µM	9.34
12.01666 µM	1.9
38 µM	82.5

Nc1ccc(Nc2ccccc2)cc1 [N-Phenyl-1,4-benzenediamine]
Settings	LDH release cytotoxicity [%]
0.03162 µM	-1.18
0.1 µM	-0.818
0.3162278 µM	-1.06
1 µM	-0.838
3.16228 µM	-0.438
10 µM	-0.107
31.6228 µM	1.04
100 µM	3.97

c1ccc2[nH]c(-c3cscn3)nc2c1 [Thiabendazole]
Settings	LDH release cytotoxicity [%]
0.03162 µM	-1.05
0.1 µM	-0.974
0.3162278 µM	-1.37
1 µM	-1.6
3.16228 µM	-1.13
10 µM	-0.856
31.6228 µM	0.392
100 µM	5.7

Oc1ccc2ccccc2c1 [2-Naphthalenol]
Settings	LDH release cytotoxicity [%]
0.03162 µM	-0.471
0.1 µM	-0.55
0.3162278 µM	-0.787
1 µM	-0.57
3.16228 µM	-0.679
10 µM	-0.106
31.6228 µM	0.851
100 µM	13.8

CCNc1nc(NC(C)C)nc(SC)n1 [Ametryn]
Settings	LDH release cytotoxicity [%]
0.03162 µM	-0.705
0.1 µM	-1.179
0.3162278 µM	-1.07
1 µM	-1.09
3.16228 µM	-1.44
10 µM	-0.756
31.6228 µM	-0.965
100 µM	-0.133

CCCCCCCCCCCCCCCO [1-Pentadecanol]
Settings	LDH release cytotoxicity [%]
0.03162 µM	0.0106
0.1 µM	-0.465
0.3162278 µM	0.131
1 µM	-0.574
3.16228 µM	0.207
10 µM	0.233
31.6228 µM	0.338
100 µM	2.58

O=[N+]([O-])/N=C1\NCCN1Cc1ccc(Cl)nc1 [Imidacloprid]
Settings	LDH release cytotoxicity [%]
0.03162 µM	-2.56
0.1 µM	-1.08
0.3162278 µM	-1.14
1 µM	-1.66
3.16228 µM	-1.89
10 µM	-0.694
31.6228 µM	-0.538
100 µM	1.58

O=c1ccc2ccccc2o1 [Coumarin]
Settings	LDH release cytotoxicity [%]
0.03162 µM	-1.09
0.1 µM	-0.766
0.3162278 µM	-0.788
1 µM	-1.992
3.16228 µM	-1.12
10 µM	-2.38
31.6228 µM	-0.666
100 µM	6.17

O=C(O)[C@H](O)[C@@H](O)C(=O)O [L-Tartaric acid]
Settings	LDH release cytotoxicity [%]
0.03162 µM	-3.55
0.1 µM	-2.52
0.3162278 µM	-2.17
1 µM	-2.97
3.16228 µM	-2.2
10 µM	-0.465
31.6228 µM	1.18
100 µM	6.93

CCCCCCOC(=O)CC(CC(=O)OCCCCCC)(OC(=O)CCC)C(=O)OCCCCCC [Butyryl-n-trihexylcitrate]
Settings	LDH release cytotoxicity [%]
0.03162 µM	-0.556
0.1 µM	-0.753
0.3162278 µM	-0.622
1 µM	-0.825
3.16228 µM	-0.796
10 µM	-0.597
31.6228 µM	-0.0452
100 µM	0.5774

CCN(C(=O)c1cc(C)cc(OCC(C)Nc2ccncc2)c1)C(C)C (configuration not stated)
Settings	LDH release cytotoxicity [%]
0.02135 µM	-1.12
0.0675 µM	-0.177
0.2134537 µM	-0.209
0.675 µM	0.1
2.13454 µM	-0.21
6.75 µM	-0.0445
21.345374 µM	0.884
67.5 µM	19

N#CC(Br)Br [Dibromoacetonitrile]
Settings	LDH release cytotoxicity [%]
0.03162 µM	-2.24
0.1 µM	-3.22
0.3162278 µM	-2.74
1 µM	-2.98
3.16228 µM	-2.65
10 µM	-2.89
31.6228 µM	-2.1
100 µM	-0.937

Nc1c(Cl)c(Cl)nc(C(=O)O)c1Cl [Picloram]
Settings	LDH release cytotoxicity [%]
0.031623 µM	-0.672
0.1 µM	-3.68
0.316228 µM	-3.74
1 µM	-3.09
3.16228 µM	-2.76
10 µM	-2.73
31.6228 µM	-2.11
100 µM	0.666
